Laboratory results as given in patent publication US9150608B2, “Neuro-protective compounds and their use” (Biotechnology Research Corp. Ltd., priority 2010, dated 2015).

Tests used:
[1] = test system: Aβ25-35-treated primary cortical neurons; assay: Cortical neuron survival assay with amyloid-beta peptide insult (MTT); format: cell-based, rat; settings: 50 μM, except GAG-C69 at 30 μM; Aβ25-35 10 μM (FIG. 19)
Description: FIG. 4. […] After overnight incubation, the MTT assay was performed. Cell survival was calculated as a percentage compared to vehicle control (“CTL no Abeta”).
Exogenous addition of amyloid beta peptide (Aβ) initiates cell death of neuronal cultures via apoptosis.
(§1) The cells were then incubated with test samples and amyloid-beta peptide fragment 25-35 (Aβ, 10 μM, Sigma) in growth medium. A tetrazole, 3-(4,5-Dimethylthiazol-2-yl)-2,5-diphenyltetrazolium bromide (MTT, 5 mg/ml) was added to the medium at a ratio of 1:10 after 24-hr incubation. MTT is reduced by living cells into purple formazan and further solubilized in 20% SDS solution; therefore, the colored solution was measured by spectrophotometer and cell viability was quantified.

[2] = test system: NMDA receptor-induced excitotoxicity in primary cortical neuronal cells; assay: NMDA survival assay (LDH release); settings: 30-50 μM pre-treated 2 hours, NMDA 20 min (FIG. 17)
Description: Embryonic rat cortical neurons (11 DIV) were pre-treated with various concentrations of AG—0 (0.1 -30 μg/mL) and then co-incubated with NMDA (20 μM). After 20 min, the medium was replaced with fresh medium, and after overnight incubation lactate dehydrogenase (LDH) released into the medium was measured. Cell death was calculated as a percentage compared to solvent control (“CTL without NMDA”). Assays were conducted in duplicate and repeated at least twice. *=P<0.05.
Cortical neurons were plated on 48-well plate (Nunc) at a density of 1.1×10^5 cells per well and cultured for 11-12 days (11-12 DIV). Neurons were pre-treated with the test compounds for 2 hours prior to N-Methyl-D-Aspartate (NMDA, Sigma) or glutamate (MSG, Sigma) treatment. Briefly, the neurons were rinsed with Locke's solution (5 mM potassium chloride, 128 mM sodium chloride, 2.7 mM calcium chloride, 1 mM di-sodium hydrogen orthophosphate, 5 mM HEPES and 10 mM glucose in Milli-Q water) without Mg^2+, followed by incubation in Locke's solution with addition of glycine (0.1 μM) for 15 minutes. After the incubation, the neurons were co-treated with the test compound (dissolved in Locke's plus glycine solution) and NMDA (20 μM) or glutamate for 20 min. Neurons were then rinsed with Locke's solution containing Mg^2+ and replaced with fresh growth medium. Cell death was assayed and quantified using the lactate dehydrogenase release assay (Cytotoxicity Detection Kit, Roche). Data was compared to a DMSO vehicle control and represented in mean±SEM. The student t-test was used for statistical analysis.

[3] = test system: rat cortical neurons cultured in the absence of B27; assay: Cortical neuron survival assay with B27 withdrawal (MTT); format: cell-based; settings: for cell survival of cortical neurons in the absence of B27 (MTT): 30 μM, pre-treated 24 hours (FIG. 15); for concentration showing neuroprotective effect in the absence of B27 (MTT): primary cortical neurons 7DIV, dose-dependent study 1-30 μM
Description: FIG. 2. Adelostemma gracillimum refined fraction promotes rat cortical neuron survival against B27 withdrawal. Cortical neurons isolated from embryonic day 18 rats were cultured in Neurobasal medium supplemented with 2 % B27. […] A MTT assay was performed 24 hours later. Cell survival is presented as a percentage compared to a DMSO control in the presence of B27 (“CTL with B27”). Assays were conducted in triplicate and repeated at least twice. *=P<0.05.
Primary cortical neurons were cultured in Neurobasal medium and supplemented with B27, a proprietary formula of Life Technologies. The combination of Neurobasal medium and B27 provides a stable growth environment for primary neurons to maturity in vitro. Neurons undergo apoptosis or cell death in the absence of B27. To study the neuroprotective effect of Adelostemma gracillimum refined fraction, neurons of 7DIV were treated with AG-0 and cell survival was measured as mitochondrial activity by the MTT assay.
as §1, with “washed with Hanks' solution twice and replaced” for “incubated”, “that were serial diluted” for “and amyloid-beta peptide fragment 25-35 (Aβ, 10 μM, Sigma)”, “Neurobasal” for “growth”, “a 2-day” for “24-hr”

[4] = test system: cyclic AMP response (CRE) element; assay: CRE-dependent transcription assay (luciferase); format: cell-based, rat; settings: hippocampal neurons 12DIV, 50 μM, 6 hours
Description: FIG. 41. GAG compounds enhance CRE-dependent transcription activity. GAG-C14 (a), GAG-C53 (b), GAG-C63 (c), GAG-C69 (d), GAG-C84 (e), GAG-C111 (f), GAG-C122 (g), GAG-C123 (h), and GAG-C129 (i) induce CRE-dependent transcriptional activity in cultured hippocampal neurons. On the day of cell seeding, hippocampal neurons were transfected with a firefly luciferase reporter plasmid containing cyclic AMP response (CRE)-element. The cells at 12 DIV were then treated with 50 μM of AG compounds for 6 hours. Data are mean±SEM (n=3-4), *=P<0.05, **=P<0.01, and ***=P<0.005 versus vehicle-treated cells (0 μM), student's t test.
Cultured hippocampal neurons were transfected with a firefly luciferase reporter plasmid containing a cyclic AMP response (CRE) element. At 12DIV, the cells were treated with 50 μM of compound for 6 hours, then CRE-dependent transcription activity was assayed by measuring luciferase levels.
Freshly isolated embryonic cortical neurons were transfected with a luciferase reporter gene (Cre-Luc) linked to CREB activation following the ACM lipofectamine method using Lipofectamine 2000, a cationic liposome based reagent (Invitrogen). […] Transfection was performed using 1 μL Lipofectamine 2000 and 0.4 μg DNA per well. Neurons were then treated with test samples for time periods of 6 hours. After treatment, the cells were washed with ice-cold DPBS and 100 μL of 1× luciferase lysis buffer (Promega) was added. The plates were placed in −20° C. to freeze the cells, after which they were thawed to facilitate lysis. The lysates were transferred onto white bottom plates and assayed for renilla luciferase using the luciferase assay kit (Promega). Increased CREB activation in the neurons leads to an enhanced luciferase production and this was quantified using a Promega GloMax™ 96 microplate luminometer. […] BDNF and rolipram were used as positive controls.

[5] = test system: phosphorylated ERK, CREB, Akt, P38, MEK in cortical neurons; assay: Western blot detection of signaling proteins in cortical neurons; format: cell-based, rat; settings: cortical neurons 7DIV

| Molecule | cell survival of cortical neurons treated with Aβ25-35 (MTT) [1] | neuronal survival following NMDA treatment (LDH) [2] | also measured |
| --- | --- | --- | --- |
| 3-O-β-D-Cymaropyranose-(1→4)-β-D-Digitoxopyranose-12-trans-cinnamyl-20-acetyl-8,14-seco-sacrostin [GAG-C30] | promoted cell survival | – | – |
| 12-O-cis/trans-cinnamoyl-20-acetyl-8,14-seco-sarcostin 3-O-β-D-Cymaropyranosyl-(1→4)-β-D-Cymaropyranosyl-(1→4)-β-D-Digitoxopyranosyl-(1→4)-β-D-Cymaropyranosyl-(1→4)-β-D-Oleandropyranoside [GAG-C104] | promoted cell survival | promoted neuronal survival | – |
| 12-O-cis/trans-cinnamoyl-20-acetyl-8,14-seco-sarcostin 3-O-β-D-Cymaropyranosyl-(1→4)-β-D-Cymaropyranosyl-(1→4)-β-D-Oleandropyranosyl-(1→4)-β-D-Oleandropyranoside [GAG-C96] | – | promoted neuronal survival | – |
| 12-O-cis/trans-cinnamoyl-20-acetyl-8,14-seco-sarcostin 3-O-β-D-Cymaropyranosyl-(1→4)-β-D-Digitoxopyranosyl-(1→4)-β-D-Oleandropyranosyl-(1→4)-β-D-Oleandropyranoside [GAG-C102] | – | promoted neuronal survival | – |
| 12-O-cis/trans-cinnamoyl-20-acetyl-8,14-seco-sarcostin 3-O-β-D-Cymaropyranosyl-(1→4)-β-D-Oleandropyranosyl-(1→4)-O-D-Oleandropyranoside [GAG-C90] | – | promoted neuronal survival | – |
| 12-O-cis/trans-cinnamoylsacrostin 3-O-β-D-Cymaropyranosyl-(1→4)-β-D-Oleandropyranosyl-(1→4)-β-D-Oleandropyranoside [GAG-C86] | – | promoted neuronal survival | – |
| C/C=C/c1ccc(OC(C)C(O)c2ccc(O)c(O)c2)c(OC)c1 (stereo not shown) [GAG-C13, 3,4,7-trihydroxyl-3′-methoxy-(7′E)-(8-O-4′)-neolignan-7′-en] | promoted cell survival | promoted neuronal survival | cell survival of cortical neurons in the absence of B27 (MTT) [3]: promoted cell survival |
| COc1cc(C2Oc3c(OC)ccc(C(C)=O)c3C2C)ccc1O (stereo not shown) [GAG-C51, 3-methoxyl-4,4′-dihydroxy-1″-athanone-3′7-epoxy-8,2″-neolignane] | – | promoted neuronal survival | – |
| C/C=C/c1cc(O)c(OC(C)C(O)c2cc(OC)c(O)c(OC)c2)c(OC)c1 (stereo not shown) [GAG-C59, 4,5′,7-trihydroxy-3, 3′,5-trimethyoxyl-hydroxy-(7′E)-(8-O-4)-neolignan-7′ en] | promoted cell survival | – | – |
| COc1cc(C2c3cc(OC)c(O)cc3C3Oc4c(C(C)=O)ccc(O)c4CC3C2CO)ccc1O (stereo not shown) [GAG-C61, 4-hydroxy-3′-methoxy-(7′E)-5′7-epoxy-8,4′-oxyneolignane-7′ en] | – | promoted neuronal survival | – |
| C[C@]12CC[C@H]3[C@@H](C=CC4=CC(=O)CC[C@@]43C)[C@@H]1CC(C(=O)O)C2 (stereo partly shown) [GAG-C63, 4,6-diene-16-carboxylic acid-3-oxo-androstane] | – | – | CRE-dependent transcription activity (luciferase) [4]: enhances CRE-dependent transcription |
| CC1CC(C)(C)C2C=C(CC/C=C/C1=O)C(=O)O2 (stereo not shown) [GAG-C65, 8-oxohumula-2, 6(E)-dien-1,12-olide] | – | promoted neuronal survival | – |
| COc1cc([C@@H]2c3cc(OC)c(O)cc3C=C(C)[C@H]2C)ccc1O [GAG-C70, (7′α,8′β)-4,4′-dihydroxyl-3,3′-dimethyoxyl-6,7′-cycloligane-7-en] | promoted cell survival | promoted neuronal survival | ERK phosphorylation ([5]; 0.1-10 μM, 15 min (FIGS. 16, 18, 20)): induced ERK phosphorylation |
| CC1(C)CC[C@@]2(C(=O)O)CC[C@]3(C)C(=CCC4[C@@]5(C)CCC(O)C(C)(CO)C5CC[C@]43C)C2C1 (stereo partly drawn) [GAG-C74, 3β,23-dihydroxyolean-12-en-28-oic acid] | promoted cell survival | – | – |
| COc1cc(C)cc(C(O)C(O)c2cc(C)ccc2OC)c1 (stereo not shown) [GAG-C80, 2-(2-methoxy-5-methylphenyl)-1-(3-methoxy-5-methylphenyl)-ethane-1,2-diol] | – | – | cell survival of cortical neurons in the absence of B27 (MTT) [3]: promoted cell survival; concentration showing neuroprotective effect in the absence of B27 (MTT) [3]: 10 to 30 µM |
| CC(C)=CCOc1c2occc2cc2ccc(=O)oc12 [GAG-C81, 8-(3-methylbut-2-enyloxy)-psoralen] | – | – | cell survival of cortical neurons in the absence of B27 (MTT) [3]: promoted cell survival; neuroprotective effect in the absence of B27 (MTT) ([3]; 1-50 μM): exhibited neuroprotective effects in a dose-dependent manner |
| COc1c2ccoc2c(OCC=C(C)C)c2oc(=O)ccc12 [GAG-C82, 8-(3-methylbut-2-enyloxy)-5-methoxyl-psoralen] | – | – | cell survival of cortical neurons in the absence of B27 (MTT) [3]: promoted cell survival |
| COC1CC(OC2C(C)CC(OC3C(C)OC(OC4CC[C@@]5(C)C(=CC[C@]6(O)C5C[C@@H](OC(=O)C=Cc5ccccc5)[C@@]5(C)[C@]6(O)CC[C@@]5(O)C(C)=O)C4)CC3OC)CC2OC)OC(C)C1O (stereo partly drawn) [GAG-C87, Ikemagenin 3-O-β-D-Cymaropyranosyl-(1→4)-β-D-Oleandropyranosyl-(1→4)-β-D-Oleandropyranoside] | – | promoted neuronal survival | – |
| COC1CC(OC2C(C)OC(OC3C(C)OC(OC4C(C)OC(OC5CC[C@@]6(C)C(=CC[C@]7(O)C6C[C@@H](OC(=O)/C=C(\C)C(C)C)[C@@]6(C)[C@]7(O)CC[C@@]6(O)C(C)=O)C5)CC4OC)CC3OC)CC2OC)OC(C)C1O (stereo partly drawn) [GAG-C92, Caudatin 3-O-β-D-Cymaropyranosyl-(1→4)-β-D-Cymaropyranosyl-(1→4)-β-D-Oleandropyranosyl-(1→4)-β-D-Oleandropyranoside] | – | promoted neuronal survival | – |
| C/C=C/c1ccc(OC(C)C(O)c2cc(OC)c(O)c(OC)c2)c(OC)c1 (stereo not shown) [GAG-C121, 3,3′,5-trimethoxy-4,7-dihydroxyl-(7′E)-(8-O-4′)-neolignan-7′en] | promoted cell survival | – | – |
| (K)-methyl 15-hydroxy-15-methoxy-12-oxopentadec-13-enoate [GAG-C78] | – | – | ERK phosphorylation time course ([5]; 30 μM): significantly induced ERK phosphorylation in cortical neurons from 15 min and persistently to 180 min; CREB phosphorylation ([5]; 30 μM, 15 min of incubation): induced CREB phosphorylation; cell survival of cortical neurons in the absence of B27 (MTT) [3]: promoted cell survival; concentration showing neuroprotective effect in the absence of B27 (MTT) [3]: 10 to 30 µM |
